Entries after “also recorded” stand apart in the source; their conditions may differ.
Experiments:
[1] = In vivo biodistribution in mice; parameters: species or system normal CD-1 male mice; settings: iv
Outline: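 Uptake values are % injected dose per gram of wet tissue, from gamma counting of weighed organs with tibia plus femur taken as bone. Tracers (20-30 μCi per animal) were given i.v. to healthy male CD-1 mice (25-30 g), with sacrifice at 2, 30, 60 and 120 min post injection.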

[2] = In vitro binding to hydroxyapatite; settings: 20 mg hydroxyapatite in saline, 10 min at room temperature
Outline: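 Binding is given as the percentage of ^68Ga activity retained by hydroxyapatite, measured by gamma counting of the solid versus the pooled supernatant and saline washes. The tracer (1 μCi) was exposed for 10 min at room temperature to hydroxyapatite pre-soaked 24 h in isotonic saline.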

[3] = test system: PSMA positive LNCaP cells; test: Cell uptake in PSMA positive LNCaP cells; assay type: cell-based; settings: 1 hr incubation at 37° C.
PSMA negative PC3 cells = test: Cell uptake in PSMA negative PC3 cells; assay type: cell-based; settings: 1 hr incubation at 37° C.
[4] = test system: PSMA expressing LNCaP tumor; test: Micro-PET imaging in PSMA expressing tumor bearing mouse; assay type: in vivo, nude mice; settings: 500 μCi, 60 min post injection, 15 min scan
Protocol: [^68Ga]1a, [^68Ga]BPAMD and [^18F]NaF were tested in normal CD-1 male mice. [^68Ga]1g was tested in PSMA expressing LNCaP tumor bearing nude mice. Mice received 300-500 uCi radiotracer through a tail vein injection. PET imaging was performed under isoflurane anaesthesia (2% isoflurane, 1.5 L/min oxygen). The microPET imaging was performed with a small animal PET (Mosaic by Phillips, USA). During PET measurements, the animals were placed in the prone position. At 60 min post injection of the radiotracer, data acquisition was performed for 15 min.

Compound: O=C([O-])CN(CCN(CC(=O)[O-])Cc1cc(CCC(=O)NC(P(=O)(O)O)P(=O)(O)O)ccc1[O-])Cc1cc(CCC(=O)NCCCCCC(=O)NCCCC[C@H](NC(=O)N[C@@H](CCC(=O)O)C(=O)O)C(=O)O)ccc1[O-].[68Ga+3] [[^68Ga]1g]
- bone to blood ratio ([1]; 2 min): 0.97
- bone to muscle ratio ([1]; 2 min): 3.71
- Biodistribution: Blood ([1]; 2 min post injection): 8.34 ± 0.51 % dose/g
- Biodistribution: Bone ([1]; 2 min post injection): 8.13 ± 1.87 % dose/g
- Biodistribution: Brain ([1]; 2 min post injection): 0.21 ± 0.03 % dose/g
- Biodistribution: Heart ([1]; 2 min post injection): 3.13 ± 0.15 % dose/g
- Biodistribution: Kidney ([1]; 2 min post injection): 35.3 ± 3.75 % dose/g
- Biodistribution: Liver ([1]; 2 min post injection): 1.73 ± 0.09 % dose/g
- Biodistribution: Lung ([1]; 2 min post injection): 4.19 ± 0.50 % dose/g
- Biodistribution: Muscle ([1]; 2 min post injection): 2.19 ± 0.11 % dose/g
- Biodistribution: Pancreas ([1]; 2 min post injection): 1.69 ± 0.13 % dose/g
- Biodistribution: Skin ([1]; 2 min post injection): 2.97 ± 0.14 % dose/g
- Biodistribution: Spleen ([1]; 2 min post injection): 2.50 ± 0.41 % dose/g
- bone to blood ratio ([1]; 30 min): 29
- bone to muscle ratio ([1]; 30 min): 46
- Biodistribution: Blood ([1]; 30 min (0.5 hr) post injection): 0.56 ± 0.10 % dose/g
- Biodistribution: Bone ([1]; 30 min (0.5 hr) post injection): 16.3 ± 0.68 % dose/g
- Biodistribution: Brain ([1]; 30 min (0.5 hr) post injection): 0.03 ± 0.00 % dose/g
- Biodistribution: Heart ([1]; 30 min (0.5 hr) post injection): 0.45 ± 0.07 % dose/g
- Biodistribution: Kidney ([1]; 30 min (0.5 hr) post injection): 77.1 ± 8.24 % dose/g
- Biodistribution: Liver ([1]; 30 min (0.5 hr) post injection): 0.27 ± 0.02 % dose/g
- Biodistribution: Lung ([1]; 30 min (0.5 hr) post injection): 1.02 ± 0.13 % dose/g
- Biodistribution: Muscle ([1]; 30 min (0.5 hr) post injection): 0.35 ± 0.02 % dose/g
- Biodistribution: Pancreas ([1]; 30 min (0.5 hr) post injection): 0.69 ± 0.02 % dose/g
- Biodistribution: Skin ([1]; 30 min (0.5 hr) post injection): 0.65 ± 0.05 % dose/g
- Biodistribution: Spleen ([1]; 30 min (0.5 hr) post injection): 2.09 ± 0.75 % dose/g
- bone to blood ratio ([1]; 60 min): 53
- bone to muscle ratio ([1]; 60 min): 74
- Biodistribution: Blood ([1]; 60 min (1 hr) post injection): 0.28 ± 0.05 % dose/g
- Biodistribution: Bone ([1]; 60 min (1 hr) post injection): 15.1 ± 1.04 % dose/g
- Biodistribution: Brain ([1]; 60 min (1 hr) post injection): 0.03 ± 0.01 % dose/g
- Biodistribution: Heart ([1]; 60 min (1 hr) post injection): 0.32 ± 0.03 % dose/g
- Biodistribution: Kidney ([1]; 60 min (1 hr) post injection): 78.4 ± 7.11 % dose/g
- Biodistribution: Liver ([1]; 60 min (1 hr) post injection): 0.18 ± 0.01 % dose/g
- Biodistribution: Lung ([1]; 60 min (1 hr) post injection): 0.58 ± 0.02 % dose/g
- Biodistribution: Muscle ([1]; 60 min (1 hr) post injection): 0.21 ± 0.02 % dose/g
- Biodistribution: Pancreas ([1]; 60 min (1 hr) post injection): 0.37 ± 0.07 % dose/g
- Biodistribution: Skin ([1]; 60 min (1 hr) post injection): 0.42 ± 0.06 % dose/g
- Biodistribution: Spleen ([1]; 60 min (1 hr) post injection): 0.91 ± 0.13 % dose/g
- bone to blood ratio ([1]; 120 min): 98
- bone to muscle ratio ([1]; 120 min): 98
- Biodistribution: Blood ([1]; 120 min post injection): 0.17 ± 0.03 % dose/g
- Biodistribution: Bone ([1]; 120 min post injection): 17.0 ± 0.05 % dose/g
- Biodistribution: Brain ([1]; 120 min post injection): 0.02 ± 0.00 % dose/g
- Biodistribution: Heart ([1]; 120 min post injection): 0.20 ± 0.03 % dose/g
- Biodistribution: Kidney ([1]; 120 min post injection): 70.3 ± 8.29 % dose/g
- Biodistribution: Liver ([1]; 120 min post injection): 0.18 ± 0.02 % dose/g
- Biodistribution: Lung ([1]; 120 min post injection): 0.47 ± 0.04 % dose/g
- Biodistribution: Muscle ([1]; 120 min post injection): 0.17 ± 0.04 % dose/g
- Biodistribution: Pancreas ([1]; 120 min post injection): 0.34 ± 0.03 % dose/g
- Biodistribution: Skin ([1]; 120 min post injection): 0.29 ± 0.06 % dose/g
- Biodistribution: Spleen ([1]; 120 min post injection): 0.87 ± 0.20 % dose/g
- Hydroxyapatite Binding (%) [2]: 88.0 ± 10.5%
- Cell uptake in PSMA positive LNCaP cells (in words) [3]: high cell uptake and retention only in LNCaP cells; also recorded: excellent uptake
- Cell uptake in PSMA negative PC3 cells (in words) (PSMA negative PC3 cells): no uptake
- Micro-PET targeting (in words) [4]: targets both bone and PSMA binding sites

— patent publication US10253052B2, “HBED-bisphosphonates, radiometal conjugates and their use as theranostic agents” (Five Eleven Pharma Inc., priority 2015, dated 2019)
